Read-outs that look alike come from different tables or passages of the source. Where a SMILES comes first, the peptide text is derived from it. [ ]: non-standard residue; d: D form. βAla = NCCC(=O)O
Assays:
Assay type in all cases: in vitro ADME, human
[1] = Soluble peptide degradation, Cells condition (LC-MS); conditions: human, 24 h, LC-MS, ratio to βFβA6
Outline: (§1)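 Pooled synthetic TAILS-derived peptides added to hUVEC or hMSC cultures (Cells) or cell-free conditioned media (Media); MMP-14 inhibitor NSC 405 020 at 10 µM final. Samples taken at 0 and 24 h, acidified, analysed by LC-MS; peak areas normalised to 50 µM βFβA6 internal standard, 24 h/0 h gives fraction remaining.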

[2] = test system: MMP-14; experiment: as above; conditions: human, with NSC 405 020 (MMP-14 inhibitor), Figure 3C, 50 µM peptide, 24 h, LC-MS, N = 6
Outline: as §1

[3] = test system: hMSCs; experiment: as above; conditions: Figure 3C; individually synthesized soluble peptide, 50 µM, media on hMSCs; 24 h; LC-MS, ratio to βFβA6; N = 6
Outline: as §1

[4] = test system: hUVECs; experiment: as above; conditions: Figure 3B heatmap; split-and-pool libraries KLVADX1X2ASAE in media on hUVECs; 24 h; LC-MS, ratio to βFβA6; N = 2
Outline: as §1

[5] = Soluble peptide degradation, Media condition (cell-conditioned media, LC-MS); conditions: 24 h, LC-MS, ratio to βFβA6
Outline: (§2)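 Pooled peptide library added to medium conditioned by hUVECs or hMSCs with cells removed. Fraction remaining after 24 h measured by LC-MS (positive-ion ESI). Value is peptide peak area relative to 50 µM non-degradable βFβA6 internal standard.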

[6] = as above; conditions: 24 h, LC-MS, ratio to βFβA6; remark: listed apart in the source
Outline: as §2

remaining at 24 h ([1]; hMSCs in culture with fresh media (Cells condition), Figure 3B heatmap, split-and-pool libraries KLVADX1X2ASAE (19 or 38 peptides per library) in media on hMSCs, N = 2, read-out: Fraction of peptide remaining after 24 hours: hMSC Cells): 53%
remaining at 24 h, 50 µM ([1]; hUVECs in culture with fresh media (Cells condition), Figure 3C, individually synthesized soluble peptide, 50 µM, media on hUVECs, N = 6, read-out: Fraction of peptide remaining after 24 hours: hUVEC Cells): 72%
remaining at 24 h, 50 µM ([2]; media on hMSCs with MMP-14 inhibitor NSC 405 020 10 µM, read-out: Fraction of peptide remaining after 24 hours: hMSC +Inhibitor): 76%
remaining at 24 h, 50 µM ([2]; media on hUVECs with MMP-14 inhibitor NSC 405 020 10 µM, read-out: Fraction of peptide remaining after 24 hours: hUVEC +Inhibitor): 98%
Fraction of peptide remaining after 24 hours: hMSC Cells [3]: 0.4
Fraction of peptide remaining after 24 hours: hUVEC Cells [4]: 0.86
Fraction of peptide remaining after 24 hours: hMSC Media ([5]; Figure 3C, individually synthesized soluble peptide, 50 µM, hMSC-conditioned media without cells, N = 6): 0.91
remaining at 24 h ([5]; human, hMSC-conditioned media without cells (Media condition), Figure 3B heatmap, split-and-pool libraries KLVADX1X2ASAE in hMSC-conditioned media without cells, N = 2, read-out: Fraction of peptide remaining after 24 hours: hMSC Media): 78%
Fraction of peptide remaining after 24 hours: hUVEC Media ([6]; Figure 3B heatmap, split-and-pool libraries KLVADX1X2ASAE in hUVEC-conditioned media without cells, N = 2): 0.96
Fraction of peptide remaining after 24 hours: hUVEC Media ([6]; Figure 3C, individually synthesized soluble peptide, 50 µM, hUVEC-conditioned media without cells, N = 6): 0.92
SMILES: CC(=O)NCCC(=O)N[C@@H](CCCCN)C(=O)N[C@@H](CC(C)C)C(=O)N[C@H](C(=O)N[C@@H](C)C(=O)N[C@@H](CC(=O)O)C(=O)N[C@@H](Cc1ccc(O)cc1)C(=O)N[C@@H](Cc1c[nH]c2ccccc12)C(=O)N[C@@H](C)C(=O)N[C@@H](CO)C(=O)N[C@@H](C)C(=O)N[C@@H](CCC(=O)O)C(=O)NCCC(N)=O)C(C)C [KLVAD-YW] (Ac-[βAla]KLVADYWASAE[βAla]-NH2)

From publication PMC12683216, “Using High‐Throughput Screening to Identify Crosslinking Peptides That Control Cell‐Mediated Matrix Degradation” (Advanced Healthcare Materials, 2025)
